Measurements reported in patent US20260262643A1, “HERBICIDAL BENZOXAZINES” (FMC CORPORATION, priority 2022, published 2026).

Legend:
Experiment in all cases: Test A preemergence
Settings in all cases: 1000 g ai/ha, 0 to 100 scale (0 no effect, 100 complete control), 10 days
[1] = system: barnyardgrass; type: in vivo, Echinochloa crusgalli
In short: (§1)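 Plants were grown in loam and sand and treated preemergence or postemergence (one- to two-leaf stage, 2–10 cm) with compound in solvent plus surfactant. Response was scored against untreated controls after 10 greenhouse days, where 0 means no effect and 100 complete control.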

[2] = system: foxtail, giant; type: in vivo, Setaria faberi
In short: as §1

[3] = system: kochia; type: in vivo, Bassia scoparia
In short: as §1

[4] = system: Pigweed, Redroot; type: in vivo, Amaranthus retroflexus
From the text: Seeds of plant species selected from barnyardgrass (Echinochloa crusgalli), blackgrass (Alopecurus myosuroides), corn (Zea mays), foxtail, giant (giant foxtail, Setaria faberi), goosegrass (Eleusine indica), kochia (Bassia scoparia), oat, wild (wild oat, Avena fatua), pigweed, palmer (palmer amaranth, palmer pigweed, Amaranthus palmeri), Pigweed, Redroot (redroot pigweed, Amaranthus retroflexus), ragweed (common ragweed, Ambrosia artemisiifolia), ryegrass, Italian (italian ryegrass, Lolium multiflorum), soybean (Glycine max), and wheat (Triticum aestivum) were planted into a blend of loam soil and sand and treated preemergence with a directed soil spray using test chemicals formulated in a non-phytotoxic solvent mixture which included a surfactant. At the same time, plants selected from these crops and weed species and also galium (catchweed bedstraw, Galium aparine) and horseweed (Erigeron canadensis) were planted in pots containing the same blend of loam soil and sand and treated with postemergence applications of test chemicals formulated in the same manner. Plants ranged in height from 2 to 10 cm and were in the one- to two-leaf stage for the postemergence treatment. Treated plants and untreated controls were maintained in a greenhouse for 10 days, after which time all treated plants were compared to untreated controls and visually evaluated for injury. Plant response ratings, summarized in Table A, are based on a 0 to 100 scale where 0 is no effect and 100 is complete control. A dash (-) response means no test result.

[5] = system: ragweed; type: in vivo, Ambrosia artemisiifolia
In short: as §1

[6] = system: ryegrass, Italian; type: in vivo, Lolium multiflorum
In short: as §1

Compound | Plant response rating, Barnyardgrass [1] | Plant response rating, Foxtail, Giant [2] | Plant response rating, Kochia [3] | Plant response rating, Pigweed, Redroot [4] | Plant response rating, Ragweed [5] | Plant response rating, Ryegrass, Italian [6]
CCC1CN(C(=O)c2ccnc(-n3cncn3)c2)c2c(Cl)cccc2O1 (stereo not drawn) [Compound 14] | 0 | 30 | 30 | 10 | 0 | 20
CC1CN(C(=O)c2ccnc(-n3cncn3)c2)c2cccc(Cl)c2O1 (stereo not drawn) [Compound 9] | 0 | 0 | 0 | 0 | 0 | 0
CC(C)C1CN(C(=O)c2ccnc(-n3cncn3)c2)c2cccc(Cl)c2O1 (stereo not drawn) [Compound 3] | 0 | 0 | 0 | 0 | 0 | 0
